The record followed here is patent US20230167070A1, “MODULATORS OF TREX1” (Constellation Pharmaceuticals, Inc., priority 2020, published 2023).

SMILES strings stand for the structures.

One experiment addresses T1, full length human TREX1 (Homo sapiens, UniProt Q9NSU2).
T1 construct: N-terminally His-Tev tagged full length human TREX1; made in house; host or cells: E. coli
T1 sequence (Q9NSU2 1-314): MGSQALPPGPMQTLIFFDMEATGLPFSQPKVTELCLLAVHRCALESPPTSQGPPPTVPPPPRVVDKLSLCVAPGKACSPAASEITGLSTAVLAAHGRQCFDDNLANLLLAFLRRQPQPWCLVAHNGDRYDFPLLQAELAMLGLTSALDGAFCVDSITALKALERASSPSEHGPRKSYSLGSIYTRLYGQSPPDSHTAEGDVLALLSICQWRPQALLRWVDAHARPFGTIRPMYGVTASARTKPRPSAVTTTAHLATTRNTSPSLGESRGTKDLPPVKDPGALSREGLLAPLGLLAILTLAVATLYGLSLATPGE
Put plainly: TREX1 Biochemical Assay (fluorescence, dsDNA substrate degradation). The following applies: 150 pM TREX1, 60 nM dsDNA substrate, 25 minutes at room temperature. On the procedure: Degradation of the dsDNA liberates free fluorophore to produce a fluorescent signal. Specifically, 7.5 μL of N-terminally His-Tev tagged full length human TREX1 (expressed in E. coli and purified in house) in reaction buffer (50 mM Tris (pH 7.4), 150 mM NaCl, 2 mM DTT, 0.1 mg/mL BSA, 0.01% (v/v) Tween-20 and 100 mM MgCl2) was added to a 384-well Black ProxiPlate Plus (Perkin Elmer) which already contained compound (150 nL) at varying concentrations as a 10 point dose-response in DMSO. To this was added 7.5 μL of dsDNA substrate (Strand A: 5′ TEX615/GCT AGG CAG 3′; Strand B: 5′ CTG CCT AGC/IAbRQSp (Integrated DNA Technologies)) in reaction buffer. Final concentrations were 150 pM TREX1, 60 nM dsDNA substrate in reaction buffer with 1.0% DMSO (v/v). After 25 minutes at room temperature, reactions were quenched by the addition of 5 μL of stop buffer (same as reaction buffer plus 200 mM EDTA). Final concentrations in the quenched reaction were 112.5 pM TREX1, 45 nM DNA and 50 mM EDTA in a volume of 20 μL. After a 5-minute incubation at room temperature, plates were read in a laser sourced Envision (Perkin-Elmer), measuring fluorescence at 615 nm following excitation w/570 nm light. IC50 values were calculated by comparing the measured fluorescence at 615 nm ratio relative to control wells pre-quenched w/stop buffer (100% inhibition) and no inhibitor (0% inhibition) controls as using non-linear least square four parameter fits and either Genedata or GraphPad Prism (GraphPad Software, Inc.).

The target in experiment [1] is T2, human TREX2 (residues M44-A279) (Homo sapiens, UniProt Q9BQ50).
T2 construct: human TREX2 (residues M44-A279, expressed in E. coli); made in house; host or cells: E. coli
T2 sequence (Q9BQ50 44-279 isoform Q9BQ50-1): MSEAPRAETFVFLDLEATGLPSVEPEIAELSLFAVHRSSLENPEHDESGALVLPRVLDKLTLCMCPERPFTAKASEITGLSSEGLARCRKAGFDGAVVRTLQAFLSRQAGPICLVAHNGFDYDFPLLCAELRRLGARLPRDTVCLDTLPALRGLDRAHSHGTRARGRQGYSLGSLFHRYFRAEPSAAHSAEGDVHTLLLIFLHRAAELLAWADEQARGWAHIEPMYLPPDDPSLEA
Put plainly: TREX2 Biochemical Assay (fluorescence, dsDNA substrate degradation). As to conditions: 2.5 nM TREX2, 60 nM dsDNA substrate, 25 minutes at room temperature. How it is done: Degradation of the dsDNA liberates free fluorophore to produce a fluorescent signal. Specifically, 7.5 μL of N-terminally His-Tev tagged human TREX2 (residues M44-A279, expressed in E. coli and purified in house) in reaction buffer (50 mM Tris (pH 7.4), 150 mM NaCl, 2 mM DTT, 0.1 mg/mL BSA, 0.01% (v/v) Tween-20 and 100 mM MgCl2) was added to a 384-well Black ProxiPlate Plus (Perkin Elmer) which already contained compound (150 nL) at varying concentrations as a 10 point dose-response in DMSO. To this was added 7.5 μL of dsDNA substrate (Strand A: 5′ TEX615/GCT AGG CAG 3′; Strand B: 5′ CTG CCT AGC/IAbRQSp (IDT)) in reaction buffer. Final concentrations were 2.5 nM TREX2, 60 nM dsDNA substrate in reaction buffer with 1.0% DMSO (v/v). After 25 minutes at room temperature, reactions were quenched by the addition of 5 μL of stop buffer (same as reaction buffer plus 200 mM EDTA). Final concentrations in the quenched reaction mixture were […] TREX2, 45 nM DNA and 50 mM EDTA in a volume of 20 μL. After a 5-minute incubation at room temperature, plates were read in a laser sourced Envision (Perkin-Elmer), measuring fluorescence at 615 nm following excitation w/570 nm light. IC50 values were calculated by comparing the measured fluorescence at 615 nm ratio relative to control wells pre-quenched w/stop buffer (100% inhibition) and no inhibitor (0% inhibition) controls as using non-linear least square four parameter fits and either Genedata or GraphPad Prism (GraphPad Software, Inc.).

For `COCCNC(=O)c1nc(N(C)C(c2ccccc2)c2ccccc2)n(C)c(=O)c1O` [Example 11, 2-(benzhydryl(methyl)amino)-5-hydroxy-N-(2-methoxyethyl)-1-methyl-6-oxo-1,6-dihydropyrimidine-4-carboxamide], the results for the half-maximal inhibitory concentration (IC50) (against full length human TREX1; in experiment [1]) were > 10000 nM and 10 to 100 µM, respectively.
The matching figures for `CNC(=O)c1nc(N(C)C(c2ccccc2)c2ccccc2)n(C)c(=O)c1O` [Example 12, 2-(benzhydryl(methyl)amino)-5-hydroxy-N,1-dimethyl-6-oxo-1,6-dihydropyrimidine-4-carboxamide]: > 10000 nM and 10 to 100 µM.
As for `CN(c1nc(C(=O)NCCC(F)(F)F)c(O)c(=O)n1C)C(c1ccccc1)c1ccccc1` [Example 13, 2-(benzhydryl(methyl)amino)-5-hydroxy-1-methyl-6-oxo-N-(3,3,3-trifluoropropyl)-1,6-dihydropyrimidine-4-carboxamide], the IC50 was in the range of 100 to 1000 nM at full length human TREX1 and 10 to 100 µM in experiment [1].
Consider `CN(c1nc(C(=O)NCC2CC2)c(O)c(=O)n1C)C(c1ccccc1)c1ccccc1` [Example 14, 2-(benzhydryl(methyl)amino)-N-(cyclopropylmethyl)-5-hydroxy-1-methyl-6-oxo-1,6-dihydropyrimidine-4-carboxamide], for which the IC50 was 100 to 1000 nM against full length human TREX1 and 1 to 10 µM in experiment [1].
The matching figures for `CN(c1nc(C(=O)Nc2ccccc2)c(O)c(=O)n1C)C(c1ccccc1)c1ccccc1` [Example 15, 2-(benzhydryl(methyl)amino)-5-hydroxy-1-methyl-6-oxo-N-phenyl-1,6-dihydropyrimidine-4-carboxamide]: < 100 nM and < 1 µM.
`CN(c1nc(C(=O)Nc2cccc(F)c2)c(O)c(=O)n1C)C(c1ccccc1)c1ccccc1` [Example 16, 2-(benzhydryl(methyl)amino)-N-(3-fluorophenyl)-5-hydroxy-1-methyl-6-oxo-1,6-dihydropyrimidine-4-carboxamide]: the results for the IC50 (against full length human TREX1; in experiment [1]) were < 100 nM and < 1 µM, respectively.
The matching figures for `CN(c1nc(C(=O)Nc2ccccc2F)c(O)c(=O)n1C)C(c1ccccc1)c1ccccc1` [Example 17, 2-(benzhydryl(methyl)amino)-N-(2-fluorophenyl)-5-hydroxy-1-methyl-6-oxo-1,6-dihydropyrimidine-4-carboxamide]: < 100 nM and < 1 µM.
The like results for `CN(c1nc(C(=O)Nc2ccc(F)cc2)c(O)c(=O)n1C)C(c1ccccc1)c1ccccc1` [Example 18, 2-(benzhydryl(methyl)amino)-N-(4-fluorophenyl)-5-hydroxy-1-methyl-6-oxo-1,6-dihydropyrimidine-4-carboxamide] were, in that order, 100 to 1000 nM and < 1 µM.
Turning to `CN(c1nc(C(=O)Nc2c(F)cccc2F)c(O)c(=O)n1C)C(c1ccccc1)c1ccccc1` [Example 19, 2-(benzhydryl(methyl)amino)-N-(2,6-difluorophenyl)-5-hydroxy-1-methyl-6-oxo-1,6-dihydropyrimidine-4-carboxamide], the IC50 on full length human TREX1 lay within 1000 to 10000 nM; in experiment [1], 10 to 100 µM.
Turning to `CN(c1nc(C(=O)Nc2ccc(F)c(F)c2)c(O)c(=O)n1C)C(c1ccccc1)c1ccccc1` [Example 20, 2-(benzhydryl(methyl)amino)-N-(3,4-difluorophenyl)-5-hydroxy-1-methyl-6-oxo-1,6-dihydropyrimidine-4-carboxamide], the figures for the IC50 (at full length human TREX1; in experiment [1]) were 100 to 1000 nM and < 1 µM, respectively.
As to `CN(c1nc(C(=O)Nc2cc(F)cc(F)c2)c(O)c(=O)n1C)C(c1ccccc1)c1ccccc1` [Example 21, 2-(benzhydryl(methyl)amino)-N-(3,5-difluorophenyl)-5-hydroxy-1-methyl-6-oxo-1,6-dihydropyrimidine-4-carboxamide], the IC50 against full length human TREX1 was 100 to 1000 nM; in experiment [1], < 1 µM.
The like results for `CN(c1nc(C(=O)Nc2cccc(F)c2F)c(O)c(=O)n1C)C(c1ccccc1)c1ccccc1` [Example 22, 2-(benzhydryl(methyl)amino)-N-(2,3-difluorophenyl)-5-hydroxy-1-methyl-6-oxo-1,6-dihydropyrimidine-4-carboxamide] were, in that order, < 100 nM and < 1 µM.
The matching figures for `CN(c1nc(C(=O)Nc2cc(F)ccn2)c(O)c(=O)n1C)C(c1ccccc1)c1ccccc1` [Example 23, 2-(benzhydryl(methyl)amino)-N-(4-fluoropyridin-2-yl)-5-hydroxy-1-methyl-6-oxo-1,6-dihydropyrimidine-4-carboxamide]: 1000 to 10000 nM and 1 to 10 µM.
In the case of `CN(c1nc(C(=O)Nc2cncc(F)c2)c(O)c(=O)n1C)C(c1ccccc1)c1ccccc1` [Example 24, 2-(benzhydryl(methyl)amino)-N-(5-fluoropyridin-3-yl)-5-hydroxy-1-methyl-6-oxo-1,6-dihydropyrimidine-4-carboxamide], the IC50 on full length human TREX1 was 100 to 1000 nM; in experiment [1] it was 1 to 10 µM.
The like results for `CN(c1nc(C(=O)Nc2ccccn2)c(O)c(=O)n1C)C(c1ccccc1)c1ccccc1` [Example 25, 2-(benzhydryl(methyl)amino)-5-hydroxy-1-methyl-6-oxo-N-(pyridin-2-yl)-1,6-dihydropyrimidine-4-carboxamide] were, in that order, 100 to 1000 nM and < 1 µM.
The matching figures for `CN(c1nc(C(=O)Nc2cncnc2)c(O)c(=O)n1C)C(c1ccccc1)c1ccccc1` [Example 26, 2-(benzhydryl(methyl)amino)-5-hydroxy-1-methyl-6-oxo-N-(pyrimidin-5-yl)-1,6-dihydropyrimidine-4-carboxamide]: 1000 to 10000 nM and 1 to 10 µM.
Take `CN(c1nc(C(=O)Nc2cccc(C(F)(F)F)c2)c(O)c(=O)n1C)C(c1ccccc1)c1ccccc1` [Example 27, 2-(benzhydryl(methyl)amino)-5-hydroxy-1-methyl-6-oxo-N-(3-(trifluoromethyl)phenyl)-1,6-dihydropyrimidine-4-carboxamide]: the results for the IC50 (against full length human TREX1; in experiment [1]) were > 10000 nM and 10 to 100 µM, respectively.
The like results for `CN(c1nc(C(=O)Nc2ccc(C(F)(F)F)cc2)c(O)c(=O)n1C)C(c1ccccc1)c1ccccc1` [Example 28, 2-(benzhydryl(methyl)amino)-5-hydroxy-1-methyl-6-oxo-N-(4-(trifluoromethyl)phenyl)-1,6-dihydropyrimidine-4-carboxamide] were, in that order, > 10000 nM and 10 to 100 µM.
For `CN(c1nc(C(=O)Nc2ccc(F)cc2)c(O)c(=O)n1C)[C@@H](c1ccccc1)c1ccccc1Cl` [Example 30, (S)-2-(((2-chlorophenyl)(phenyl)methyl)(methyl)amino)-N-(4-fluorophenyl)-5-hydroxy-1-methyl-6-oxo-1,6-dihydropyrimidine-4-carboxamide], the IC50 is 100 to 1000 nM against full length human TREX1 and < 1 µM in experiment [1].

By IC50 is commonly meant the point on the concentration scale where inhibition reaches its midpoint. A higher IC50 goes with a need for much substance.
